# Measurements as given in US20190125735A1, “INHIBITION OF P38 MAPK FOR THE TREATMENT OF CANCER” (Board of Regents, The University of Texas System, priority 2015, published 2019).
# Columns and labels:
# Type in all cases: cell-based, human
# [1] = test system: ZEB1; assay: ZEB1 mRNA and protein levels (qRT-PCR, immunoblotting)
# Source text: First, the elevated levels of FOXC2 and ZEB1 transcripts were confirmed in HMLER-FOXC2 cells versus HMLER-vector cells by qRT-PCR (FIG. 19A). […] Accordingly, shRNA-mediated suppression of FOXC2 in a panel of cell lines yielded a >50-fold decrease in ZEB1 mRNA (FIG. 19E) and a >80% reduction in ZEB1 protein levels (FIG. 19F). […] Conversely, a >50-fold increase as found in miR-200b, and a >1000-fold increase in miR-200c, following FOXC2 knockdown compared to control shRNA-transduced counterparts (FIG. 19H). To ascertain whether FOXC2 directly regulates miR-200 or ZEB1 expression, the promoter regions of both miR-200 clusters on chromosomes 1 and 12 as well as the ZEB1 promoter were analyzed, and a conserved FOXC2-binding element within the ZEB1 promoter was identified. […] Furthermore, in support of the notion that p38-mediated phosphorylation of FOXC2 regulates ZEB1 expression, elevated ZEB1 protein levels were only detected in HMLER-FOXC2 and HMLER-FOXC2(S367E) cells (FIG. 19L, lanes 2 and 3), but not in HMLER-FOXC2(S367A) cells (FIG. 19L, lane 4).
# Immunoblotting and immunofluorescence (Mani et al., 2008) were performed as previously described. Primary antibodies were as follows: β-actin (Sigma, St Louis, Mo., USA; A3853), mouse anti-human FOXC2 (Dr. Naoyuki Miura, Hamamatsu University School of Medicine, Japan), goat polyclonal anti-FOXC2 (Santa Cruz Biotechnology, Dallas, Tex., USA; sc-21397), p-p38 (Cell Signaling, Danvers, Mass., USA; 4511), p38 (Cell Signaling; 9211), E-cadherin (BD Biosciences, San Jose, Calif., USA; 61081), fibronectin (BD Biosciences; 610077), vimentin (Novus Biologicals, Littleton, Colo., USA; NB200-623), ZEB1 (Novus Biologicals; NBP1-05987), and HA (Covance, Princeton, N.J., USA; MMS-101P).
# qRT-PCR was performed using SYBR Green (Applied Biosystems, Waltham, Mass., USA) for mRNAs and Taqman (Applied Biosystems) for microRNAs as described previously (Hollier et al., 2013).
# [2] = test system: HMLE-Snail-ER and HMLE-Twist-ER cells; assay: FACS CD44high/CD24low of 4-OHT-treated HMLE-Snail-ER and HMLE-Twist-ER cells; details: 4-OHT-treated cells, SB203580 exposure
# Protocol: FIGS. 15A-15L: p38 inhibition compromises the acquisition and maintenance of EMT and stem cell properties in vitro. […] Cells were harvested and the corresponding lysates were analyzed by immunoblotting for FOXC2, E-cadherin and mesenchymal markers. β-actin was used as a loading control. […] Cells were harvested at the indicated timepoints and the corresponding lysates were analyzed by immunoblotting for FOXC2, E-cadherin and mesenchymal markers. β-actin was used as a loading control. […] One thousand cells were seeded per well in ultra-low attachment plates and cultured for 7-10 days. Spheres with a diameter greater than 75 μm were counted. The data are reported as the number of spheres formed/1000 seeded cells±SEM. […] Data are presented as mean±SEM. […] The corresponding lysates were analyzed by immunoblotting for FOXC2, E-cadherin and mesenchymal markers. β-actin was used as a loading control. (F) The sphere-forming efficiency of 4-OHT-treated HMLE-Twist-ER cells, transduced with control shRNA (shControl) or p38 shRNA (shp38), was determined. […] (H) The sphere-forming efficiency of the indicated cells was determined in the presence of vehicle or SB203580. […] (J) The relative wound closure by the indicated cells, treated with vehicle or SB203580, was measured by image analysis and represented in a graphical format. […] Degradation of FITC-gelatin was quantified by image analysis. n=150 cells/sample. […]
# [3] = test system: HMLE-Snail, HMLE-Twist, MDA-MB-231 and SUM159 cells; assay: FACS CD44high/CD24low of mesenchymal mammary cells; details: relative to vehicle-treated cells
# Protocol: It was next ascertained whether p38 inhibition compromises the maintenance of the established EMT phenotype.
# Quantification of invadopodia (Eckert et al., 2011), scratch/wound-healing assays (Sarkar et al., 2015) fluorescence-activated cell sorting (FACS), and sphere-formation assays (Mani et al., 2008) were conducted as described previously.
compound,measurement,setting,value
"C[S+]([O-])c1ccc(-c2nc(-c3ccc(F)cc3)c(-c3ccncc3)[nH]2)cc1 (centres unmarked) [SB203580, 4-(4-Fluorophenyl)-2-(4-methylsulfinylphenyl)-5-(4-pyridyl) 1H-imidazole]",ZEB1 protein levels,[1]; HMLER-FOXC2(S367E) cells,remained relatively high
same,ZEB1 protein levels,[1]; HMLER-FOXC2 cells,decreased
same,Reduction of ZEB1 mRNA and protein levels compared to vehicle,[1]; SB203580 treatment,> 60 fold
same,CD44^high/CD24^low marker profile,[2],failed to acquire
same,Percentage of cells displaying the CD44^high/CD24^low antigenic profile,[3],substantially reduced
